“Also recorded” adds a separate entry of the source.
Experiments:
KYSE-450 = assay: MTT cytotoxicity assay, KYSE-450; assay type: cell-based, Human; details: KYSE-450, highest concentration of 50 μg/mL, 48 hours
Description: (§1) In this invention, compound 1 was dissolved in dimethyl sulfoxide (DMSO) to make stock solutions and further diluted in culture medium for this experiment. Human esophagus carcinoma cancer cell lines (KYSE-70, KYSE-150, KYSE-450 and KYSE-520) were cultured in RPMI 1640 or DMEM medium, containing 10% fetal bovine serum and 1% antibiotics (Penicillin and strep). The cell lines were cultured at 37° C. in a humidified environment containing 5% CO2. A standard colorimetric MTT assay was used to determine the cell viability. Cells were seeded in a 96-well plate (3×10^3 cells/well) and allowed to attach to the plate overnight. After the recovery, cells were treated with various concentrations of compound 1 or the crude extract (1.56, 3.125, 6.25, 12.5, 25, 50 μg/mL) for 48 hours. Then, 20 μL of MTT (5 mg/mL stock in PBS) per well was added into the medium (200 μL) and incubated for 4 hours at 37° C. Finally, the culture medium was removed and 200 μL of DMSO were added. Absorbance of the solution was measured using a microplate reader spectrophotometer (Bio-Rad Laboratories, Inc., Hercules, Calif.) at a wavelength of 570 nm.

KYSE-150 cells [1] = assay: Tumor xenograft mouse model; assay type: in vivo, Balb/c nude mice; details: 15 and 30 mg/kg/day intraperitoneal, 12 days, vs saline control
Description: Six to eight-week-old female Balb/c nude weighing between 16-20 g were bred in 12 h day/night cycle environment with free access to food and water. 2×10^6 KYSE-150 cells per […] saline were injected subcutaneously into the flanks of the mice. When the tumor volume reached about 100 mm^3, the mice were randomly divided into three groups (n=5) as followed: (i) a control group: administered with saline; (ii) a low dosage group: administered with compound 1 at 15 mg/kg/day by intraperitoneal injection; (iii) a high dosage group, administered with compound 1 at 30 mg/kg/day by intraperitoneal injection. Tumor volumes were calculated with calipers every two days according to the formula: Volume=(width)^2×length/2. After 12 days observation, mice were killed to remove the tumor. Then the samples were fixed in 4% paraformaldehyde and embedded in paraffin. Five-micro-meter sections were stained with hematoxylin/eosin according to a standard procedure. The protocol was approved by the committee for Care of Laboratory Animals in the School of Chinese Medicine at the Hong Kong Baptist University.

KYSE-150 = assay: MTT cytotoxicity assay, KYSE-150; assay type: cell-based, Human; details: KYSE-150, highest concentration of 50 μg/mL, 48 hours
Description: as §1

KYSE-70 = assay: MTT cytotoxicity assay, KYSE-70; assay type: cell-based, Human; details: KYSE-70, highest concentration of 50 μg/mL, 48 hours
Description: as §1

KYSE-520 = assay: MTT cytotoxicity assay, KYSE-520; assay type: cell-based, Human; details: KYSE-520, highest concentration of 50 μg/mL, 48 hours
Description: as §1

KYSE-150 cells [2] = assay: Wound healing assay; assay type: cell-based, human; details: KYSE-150, 50 μg/mL, after 72 hours, vs control
Description: Cells were seeded in 12 wells plate at 30% confluence by scoring with a sterile plastic tip (1 mL), then washed several times with medium to remove cell debris and then incubated in the conditioned medium in the absence or presence of compound 1 at 50 μg/mL for various periods of time up to 72 hours. Cell migration into the wound surface was monitored by Olympus IX71 microscopy and digitally photographed.
To further examine the inhibitory effect of compound 1 on the migratory activity of cancer cell, a confluent monolayer of KYSE-150 cells was scratched to form a wound and incubated in the absence or presence of compound 1 (50 μg/mL) as compared to that of controls.

## COc1cc(-c2oc3cc(O)cc(O)c3c(=O)c2OC2OC(COC3OC(C)C(O)C(O)C3O)C(O)C(O)C2O)ccc1O (stereo not drawn) [compound 1]
KYSE-450
  Cytotoxicity (cell viability): no cytotoxicity was observed
KYSE-150 cells [1]
  Body weight: significantly reduced
  H&E staining of tumor tissue: massive necrotizing tissue
  Tumor growth (tumor volume): significantly reduced
  Tumor weight: significantly reduced tumor weight
KYSE-150
  Cytotoxicity (cell viability): cells viability was not altered; also recorded: no cytotoxicity was observed
KYSE-70
  Cytotoxicity (cell viability): no cytotoxicity was observed
KYSE-520
  Cytotoxicity (cell viability): no cytotoxicity was observed
KYSE-150 cells [2]
  Cell migration: significantly inhibited the cell migration

Source: US9655913B2, “Anti-esophageal cancer compound and method of use thereof” (Hong Kong Baptist University, priority 2015, dated 2017)
